{"source": "paper PMC11377560", "about": "“Structural insights into the molecular effects of the anthelmintics monepantel and betaine on the Caenorhabditis elegans acetylcholine receptor ACR-23” (The EMBO Journal, 2024)", "key": {"[1]": {"target": "engineered ACR-23 (acetylcholine receptor like-23), M3-M4 loop replaced with bRIL (Caenorhabditis elegans | not stated) (UniProt G5EG88)", "assay": "cryo-EM structure; single particle cryo-EM of purified ACR-23 in DDM/CHS, 20 mM Tris pH 8.0, 150 mM NaCl; apo, with 1.5 mM betaine, or with 1.5 mM betaine and 5 mM monepantel; homo-pentamer in all three states"}, "[2]": {"target": "T1, ACR-23 (acetylcholine receptor like-23) (Caenorhabditis elegans, UniProt G5EG88)", "T1 construct": "homo-pentamer; M3-M4 loop (residues Lys 386 to Gln 437) replaced with bRIL, C-terminal strep tag (cryo-EM); ACR-23 with C-terminal GFP in HEK293 cells (EC50)", "T1 sequence (G5EG88 20-545)": "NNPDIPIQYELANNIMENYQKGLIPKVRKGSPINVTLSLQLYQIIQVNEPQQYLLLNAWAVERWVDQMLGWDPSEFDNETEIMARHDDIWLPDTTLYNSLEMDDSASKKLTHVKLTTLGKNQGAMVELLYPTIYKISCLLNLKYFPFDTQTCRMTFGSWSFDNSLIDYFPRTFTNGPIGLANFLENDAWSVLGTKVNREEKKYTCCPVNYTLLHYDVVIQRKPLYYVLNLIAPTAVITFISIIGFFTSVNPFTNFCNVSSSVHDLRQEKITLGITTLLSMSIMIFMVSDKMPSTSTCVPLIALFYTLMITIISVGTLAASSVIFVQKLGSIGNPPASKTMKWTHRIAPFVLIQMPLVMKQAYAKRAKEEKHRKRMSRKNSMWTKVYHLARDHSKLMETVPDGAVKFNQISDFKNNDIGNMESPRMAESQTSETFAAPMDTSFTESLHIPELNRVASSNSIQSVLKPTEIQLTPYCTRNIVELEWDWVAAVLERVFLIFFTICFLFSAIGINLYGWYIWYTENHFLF", "assay": "cryo-EM structure ([…] Å); EC50 by whole-cell patch clamp in HEK293 cells", "format": "cell-based"}, "[3]": {"target": "T1, ACR-23 (acetylcholine receptor like-23)", "assay": "cryo-EM structure ([…] Å, betaine co-bound); EC50 by whole-cell patch clamp in HEK293 cells", "format": "cell-based"}}}
{"compound": "engineered ACR-23 (acetylcholine receptor like-23), M3-M4 loop replaced with bRIL (from UniProt G5EG88 20-385; G5EG88 438-545)", "values": [{"measurement": "stoichiometry N", "setting": "[1]", "value": 5}]}
{"compound": "C[N+](C)(C)CC(=O)O", "note": "[betaine]", "values": [{"measurement": "EC50", "setting": "[2]", "value": "~34.4", "unit": "µM"}]}
{"compound": "CC(C#N)(COc1cc(C#N)ccc1C(F)(F)F)NC(=O)c1ccc(SC(F)(F)F)cc1", "note": "(racemic) [monepantel]", "values": [{"measurement": "EC50", "setting": "[3]", "value": 2130, "unit": "nM"}]}
